Patent US20220089575A1, “FARNESOID X RECEPTOR AGONISTS AND USES THEREOF” (Metacrine, Inc., priority 2017, published 2022)

target: T1, hFXR (Homo sapiens, UniProt Q96RI1); assay: In Vitro FXR Assay (TK): TK-ECRE-luc reporter in transfected CV-1 cells; type: cell-based; details: 18 hrs, luminescence, maximum efficacy of <25% of the Fexarmine control classified as '+'
T1 construct: expressed in transfected cells; host or cells: CV-1 cells
T1 sequence (Q96RI1 1-486): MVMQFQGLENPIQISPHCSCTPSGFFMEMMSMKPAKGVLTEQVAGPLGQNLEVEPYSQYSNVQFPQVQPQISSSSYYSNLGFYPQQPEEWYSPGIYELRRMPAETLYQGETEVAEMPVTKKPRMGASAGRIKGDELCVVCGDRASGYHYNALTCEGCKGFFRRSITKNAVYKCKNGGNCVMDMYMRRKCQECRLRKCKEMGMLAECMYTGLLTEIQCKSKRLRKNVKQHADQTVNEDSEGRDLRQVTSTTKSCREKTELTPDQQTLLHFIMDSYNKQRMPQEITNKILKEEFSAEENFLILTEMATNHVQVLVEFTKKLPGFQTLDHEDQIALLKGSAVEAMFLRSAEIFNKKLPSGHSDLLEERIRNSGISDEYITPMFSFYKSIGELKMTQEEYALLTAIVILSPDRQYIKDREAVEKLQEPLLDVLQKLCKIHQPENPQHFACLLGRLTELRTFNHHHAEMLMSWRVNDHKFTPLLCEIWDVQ
T1 sequence (P19793 1-462 partner): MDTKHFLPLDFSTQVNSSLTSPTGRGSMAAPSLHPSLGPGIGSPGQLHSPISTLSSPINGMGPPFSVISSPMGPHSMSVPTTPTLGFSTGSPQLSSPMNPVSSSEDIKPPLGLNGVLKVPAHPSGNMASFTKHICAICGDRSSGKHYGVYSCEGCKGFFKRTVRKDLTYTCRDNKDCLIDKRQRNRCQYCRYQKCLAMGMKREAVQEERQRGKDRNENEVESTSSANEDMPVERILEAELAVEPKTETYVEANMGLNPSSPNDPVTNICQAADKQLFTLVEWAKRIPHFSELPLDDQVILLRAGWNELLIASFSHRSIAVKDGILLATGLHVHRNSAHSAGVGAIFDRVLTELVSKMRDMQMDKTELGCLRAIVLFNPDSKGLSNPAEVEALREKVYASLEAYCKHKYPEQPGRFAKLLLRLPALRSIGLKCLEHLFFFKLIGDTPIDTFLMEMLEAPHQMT
Method in brief: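 Transiently transfected monkey CV-1 cells (hFXR, hRXR, TK-ECRE-luciferase, YFP control plasmid), held in stripped-serum DMEM, received compound dilutions from DMSO for 18 h at 37 °C. Activity was taken from luminescence of the cell lysates.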

Compound	EC50 [nM]
COc1ccc([C@H]2CC[C@H](CN(c3cccc(-c4cnc(C5CC5)s4)c3)C(=O)[C@H]3CC[C@H](C(=O)O)CC3)CC2)cc1Cl [Compound 17.03, trans-4-(((trans-4-(3-Chloro-4-methoxyphenyl)cyclohexyl)methyl)(3-(2-cyclopropylthiazol-5-yl)phenyl)carbamoyl)cyclohexanecarboxylic acid]	≤ 250
Cn1nc(F)c2cc([C@H]3CC[C@H](CN(c4cccc(-c5cnc(C6CC6)s5)c4)C(=O)[C@H]4CC[C@H](C(=O)O)CC4)CC3)ccc21 [Compound 17.04, trans-4-((3-(2-Cyclopropylthiazol-5-yl)phenyl)((trans-4-(3-fluoro-1-methyl-1H-indazol-5-yl)cyclohexyl)methyl)carbamoyl) cyclohexanecarboxylic acid]	≤ 250
COc1ccc(C23CCC(CN(c4cccc(-c5cnc(C6CC6)s5)c4)C(=O)[C@H]4CC[C@H](C(=O)O)CC4)(CC2)CC3)cc1C [Compound 17.05, trans-4-((3-(2-Cyclopropylthiazol-5-yl)phenyl)((4-(4-methoxy-3-methylphenyl)bicyclo[2.2.2]octan-1-yl)methyl)carbamoyl) cyclohexanecarboxylic acid]	≤ 250
CN(C)c1ccc(C23CCC(CN(c4cccc(-c5cnc(C6CC6)s5)c4)C(=O)[C@H]4CC[C@H](C(=O)O)CC4)(CC2)CC3)cn1 [Compound 17.06, trans-4-((3-(2-Cyclopropylthiazol-5-yl)phenyl)((4-(6-(dimethylamino)pyridin-3-yl)bicyclo[2.2.2]octan-1-yl)methyl)carbamoyl) cyclohexanecarboxylic acid]	≤ 250
COc1ccc(C23CCC(CN(c4cc(-c5cnc(C6CC6)s5)ccn4)C(=O)[C@H]4CC[C@H](C(=O)O)CC4)(CC2)CC3)cc1C [Compound 17.07, trans-4-((4-(2-Cyclopropylthiazol-5-yl)pyridin-2-yl)((4-(4-methoxy-3-methylphenyl)bicyclo[2.2.2]octan-1-yl)methyl)carbamoyl) cyclohexanecarboxylic acid]	≤ 250
COc1ccc([C@H]2CC[C@H](CN(c3cccc(-c4cnc(C5CC5)s4)c3)C(=O)[C@H]3CC[C@H](C(=O)O)CC3)CC2)nc1C [Compound 17.08, trans-4-((3-(2-Cyclopropylthiazol-5-yl)phenyl)((trans-4-(5-methoxy-6-methylpyridin-2-yl)cyclohexyl)methyl)carbamoyl) cyclohexanecarboxylic acid]	≤ 250
COc1ccc([C@H]2CC[C@H](CN(c3cc(-c4cnc(C5CC5)s4)ccn3)C(=O)[C@H]3CC[C@H](C(=O)O)CC3)CC2)cc1C [Compound 17.09, trans-4-((4-(2-Cyclopropylthiazol-5-yl)pyridin-2-yl)((trans-4-(4-methoxy-3-methylphenyl)cyclohexyl)methyl)carbamoyl)cyclohexanecarboxylic acid]	≤ 250
COc1ccc([C@H]2CC[C@H](CN(c3cc(-c4cnc(C5CC5)s4)ccn3)C(=O)[C@H]3CC[C@H](C(=O)O)CC3)CC2)nc1C [Compound 17.10, trans-4-((4-(2-Cyclopropylthiazol-5-yl)pyridin-2-yl)((trans-4-(5-methoxy-6-methylpyridin-2-yl)cyclohexyl)methyl)carbamoyl) cyclohexanecarboxylic acid]	250 to 1000
COc1ccc([C@H]2CC[C@H](CN(c3cccc(-c4cnc(C5CC5)s4)c3)C(=O)[C@H]3CC[C@H](C(=O)O)CC3)CC2)cc1C#N [Compound 17.11, trans-4-(((trans-4-(3-Cyano-4-methoxyphenyl)cyclohexyl)methyl)(3-(2-4-cyclopropylthiazol-5-yl)phenyl)carbamoyl)cyclohexanecarboxylic acid]	≤ 250
COc1ccc([C@H]2CC[C@H](CN(c3cccc(-c4cnc(C5CC5)s4)c3)C(=O)[C@H]3CC[C@H](C(=O)O)CC3)CC2)nc1C#N [Compound 17.12, trans-4-(((trans-4-(6-Cyano-5-methoxypyridin-2-yl)cyclohexyl)methyl)(3-(2-cyclopropylthiazol-5-yl)phenyl)carbamoyl) cyclohexanecarboxylic acid]	≤ 250
COc1ccc([C@H]2CC[C@H](CN(c3cccc(-c4cnn(C5CC5)c4)c3)C(=O)[C@H]3CC[C@H](C(=O)O)CC3)CC2)cc1C [Compound 17.13, trans-4-((3-(1-Cyclopropyl-1H-pyrazol-4-yl)phenyl)((trans-4-(4-methoxy-3-methylphenyl)cyclohexyl)methyl)carbamoyl)cyclohexanecarboxylic acid]	≤ 250
CN(C)c1ccc([C@H]2CC[C@H](CN(c3cccc(-c4cnn(C5CC5)c4)c3)C(=O)[C@H]3CC[C@H](C(=O)O)CC3)CC2)cn1 [Compound 17.14, trans-4-((3-(1-Cyclopropyl-1H-pyrazol-4-yl)phenyl)((trans-4-(6-(dimethylamino)pyridin-3-yl)cyclohexyl)methyl)carbamoyl) cyclohexanecarboxylic acid]	≤ 250
COc1ccc([C@H]2CC[C@H](CN(c3cccc(-c4cnn(C5CC5)c4)c3)C(=O)[C@H]3CC[C@H](C(=O)O)CC3)CC2)cc1Cl [Compound 17.15, trans-4-(((trans-4-(3-Chloro-4-methoxyphenyl)cyclohexyl)methyl)(3-(1-cyclopropyl-1H-pyrazol-4-yl)phenyl)carbamoyl) cyclohexanecarboxylic acid]	≤ 250
Cn1nc(F)c2cc([C@H]3CC[C@H](CN(c4cccc(-c5cnn(C6CC6)c5)c4)C(=O)[C@H]4CC[C@H](C(=O)O)CC4)CC3)ccc21 [Compound 17.16, trans-4-((3-(1-Cyclopropyl-1H-pyrazol-4-yl)phenyl)((trans-4-(3-fluoro-1-methyl-1H-indazol-5-yl)cyclohexyl)methyl)carbamoyl) cyclohexanecarboxylic acid]	≤ 250
COc1ccc(C23CCC(CN(c4cccc(-c5cnn(C6CC6)c5)c4)C(=O)[C@H]4CC[C@H](C(=O)O)CC4)(CC2)CC3)cc1C [Compound 17.17, trans-4-((3-(1-Cyclopropyl-1H-pyrazol-4-yl)phenyl)((4-(4-methoxy-3-methylphenyl)bicyclo[2.2.2]octan-1-yl)methyl)carbamoyl) cyclohexanecarboxylic acid]	≤ 250
COc1ccc([C@H]2CC[C@H](CN(c3cccc(-c4cnn(C5CC5)c4)c3)C(=O)[C@H]3CC[C@H](C(=O)O)CC3)CC2)nc1C [Compound 17.18, trans-4-((3-(1-Cyclopropyl-1H-pyrazol-4-yl)phenyl)((trans-4-(5-methoxy-6-methylpyridin-2-yl)cyclohexyl)methyl)carbamoyl) cyclohexanecarboxylic acid]	250 to 1000
COc1ccc(C23CCC(CN(c4cc(-c5cnn(C6CC6)c5)ccn4)C(=O)[C@H]4CC[C@H](C(=O)O)CC4)(CC2)CC3)cc1C [Compound 17.19, trans-4-((4-(1-Cyclopropyl-1H-pyrazol-4-yl)pyridin-2-yl)((4-(4-methoxy-3-methylphenyl)bicyclo[2.2.2]octan-1-yl)methyl)carbamoyl) cyclohexanecarboxylic acid]	≤ 250
COc1ccc([C@H]2CC[C@H](CN(c3cc(-c4cnn(C5CC5)c4)ccn3)C(=O)[C@H]3CC[C@H](C(=O)O)CC3)CC2)cc1C [Compound 17.20, trans-4-((4-(1-Cyclopropyl-1H-pyrazol-4-yl)pyridin-2-yl)((trans-4-(4-methoxy-3-methylphenyl)cyclohexyl)methyl)carbamoyl)cyclohexanecarboxylic acid]	≤ 250
